Read-outs that look alike come from different tables or passages of the source.
System: β-catenin-TCF-mediated reporter transcription activity in Colo 205 cells
Assay: Colo 205 reporter assay (TCF/LEF luciferase)
Format: cell-based
Settings: Colo 205 TCF/LEF luciferase reporter, read-out: TCF reporter Colo205 IC50
Method in brief: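 Luciferase signal from a TCF/LEF-driven reporter, stably integrated in Colo 205 colon cancer cells, was measured 5 h after compound addition.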

[1] = Homo sapiens, COLO 205, 5 h, R-isomer at C2 (corresponding to C2 S-isomer), 5 h
[2] = Homo sapiens, COLO 205, 5 h, five hours after addition of compound

Compound	IC50 [2] [nM]	further results
Cc1nc(NCc2cnn(Cc3ccc(F)nc3)c2)nc2c1NC(=O)[C@@H](C1CC1)N2C [Compound I-1641]		IC50 [1]: ≥ 5000 nM
Cc1nc(N[C@@H]2CCc3c2cnn3Cc2ccc(C(F)(F)F)nc2)nc2c1NC(=O)[C@H](C(C)C)N2C [Compound 520, (S)-7-isopropyl-4,8-dimethyl-2-(((R)-1-((6-(trifluoromethyl)pyridin-3-yl)methyl)-1,4,5,6-tetrahydrocyclopenta[c]pyrazol-4-yl)amino)-7,8-dihydropteridin-6(5H)-one]	≥ 5000	
CO[C@H](C)[C@H]1C(=O)N(C)c2cnc(NCc3cnn(Cc4ccc(F)cc4)c3)nc2N1C [Compound 20, (7S)-2-(((1-(4-fluorobenzyl)-1H-pyrazol-4-yl)methyl)amino)-7-((R)-1-methoxyethyl)-5,8-dimethyl-7,8-dihydropteridin-6(5H)-one]	300 to 1000	
Cc1nc(N[C@H]2C[C@@H](NC(=O)Nc3cc(F)c(F)cc3F)C2)nc2c1NC(=O)[C@H](C)N2C [Compound 477, 1-(2,4,5-trifluorophenyl)-3-(cis-3-(((S)-4,7,8-trimethyl-6-oxo-5,6,7,8-tetrahydropteridin-2-yl)amino)cyclobutyl)urea]	< 300	
Cc1nc(N[C@H]2C[C@@H](Nc3nc(C(F)(F)F)nn3C)C2)nc2c1NC(=O)[C@H](C(C)C)N2C [Compound 569, (S)-7-isopropyl-4,8-dimethyl-2-((cis-3-((1-methyl-3-(trifluoromethyl)-1H-1,2,4-triazol-5-yl)amino)cyclobutyl)amino)-7,8-dihydropteridin-6(5H)-one]	1000 to 5000	
Cc1nc(N[C@H]2C[C@H](Sc3ccc(C(F)(F)F)cc3)C2)nc2c1NC(=O)[C@H](C)N2C [Compound 317, (7S)-4,7,8-trimethyl-2-((trans-3-((4-(trifluoromethyl)phenyl)thio)-cyclobutyl)amino)-7,8-dihydropteridin-6(5H)-one]	300 to 1000	
CC[C@H]1C(=O)Nc2c(C)nc(N[C@@H]3CC[C@H](Nc4cnc(C(F)(F)F)cn4)C3)nc2N1C [Compound 738, (S)-7-ethyl-4,8-dimethyl-2-(((1R,3S)-3-((5-(trifluoromethyl)pyrazin-2-yl)amino)cyclopentyl)amino)-7,8-dihydropteridin-6(5H)-one]	300 to 1000	
COCC1(C)C(=O)Nc2c(C)nc(N[C@H]3C[C@H](Oc4cnc(C(F)(F)F)nc4)C3)nc2N1C (relative stereo) [Compound 710, 7-(methoxymethyl)-4,7,8-trimethyl-2-((trans-3-((2-(trifluoromethyl)pyrimidin-5-yl)oxy)cyclobutyl)amino)-7,8-dihydropteridin-6(5H)-one]		IC50 (five hours after addition of compound): 1000 to 5000 nM
C[C@H]1C(=O)Nc2cnc(N[C@H]3C[C@H](OCc4cc(F)c(F)c(F)c4)C3)nc2N1C [Compound 256, (7S)-7,8-dimethyl-2-((trans-3-((3,4,5-trifluorobenzyl)oxy)cyclobutyl)amino)-7,8-dihydropteridin-6(5H)-one]	300 to 1000	
Cc1nc(N[C@H]2C[C@@H](NS(=O)(=O)c3cc(F)c(F)c(F)c3)C2)nc2c1NC(=O)[C@H](C)N2C [Compound 481, 3,4,5-trifluoro-N-(cis-3-(((S)-4,7,8-trimethyl-6-oxo-5,6,7,8-tetrahydropteridin-2-yl)amino)cyclobutyl)benzenesulfonamide]	300 to 1000	
Cc1nc(NCc2cnn(CC(=O)c3ccc(F)cc3)c2)nc2c1NC(=O)[C@H](C)N2C [Compound 91, (7S)-2-(((1-(2-(4-fluorophenyl)-2-oxoethyl)-1H-pyrazol-4-yl)methyl)amino)-4,7,8-trimethyl-7,8-dihydropteridin-6(5H)-one]	< 300	
Cc1nc(N[C@H]2C[C@@H](Nc3ccc(C(F)(F)F)cn3)C2)nc2c1NC(=O)[C@H](C(C)C)N2C [Compound 534, (S)-7-isopropyl-4,8-dimethyl-2-((cis-3-((5-(trifluoromethyl)pyridin-2-yl)amino)cyclobutyl)amino)-7,8-dihydropteridin-6(5H)-one]	< 300	
CCN1C(=O)[C@@H](C)N(C(C)C)c2nc(NCc3cnn(Cc4ccc(F)cc4)c3)ncc21 [Compound I-1144]		IC50 [1]: 300 to 1000 nM
Cc1nc(NCc2cnn(Cc3ccc(OCC(F)(F)F)nc3)c2)nc2c1NC(=O)[C@H](C)N2C [Compound 390, (7S)-4,7,8-trimethyl-2-(((1-((6-(2,2,2-trifluoroethoxy)pyridin-3-yl)methyl)-1H-pyrazol-4-yl)methyl)amino)-7,8-dihydropteridin-6(5H)-one]	< 300	
Cc1nc(N[C@H]2C[C@@H](Cn3ccc(C(F)(F)F)n3)C2)nc2c1NC(=O)[C@H](C)N2C [Compound 698, (S)-4,7,8-trimethyl-2-((cis-3-((3-(trifluoromethyl)-1H-pyrazol-1-yl)methyl)cyclobutyl)amino)-7,8-dihydropteridin-6(5H)-one]	300 to 1000	
Cc1nc(NC2CN(C(=O)c3ccc(C(F)(F)F)o3)C2)nc2c1NC(=O)[C@H](C(C)C)N2C [Compound 621, (S)-7-isopropyl-4,8-dimethyl-2-((1-(5-(trifluoromethyl)furan-2-carbonyl)azetidin-3-yl)amino)-7,8-dihydropteridin-6(5H)-one]	300 to 1000	

Compound	IC50 [2] [nM]	further results
Cc1nc(NCc2cnn(Cc3ccc(C(F)(F)F)nc3)c2)nc2c1NC(=O)C(C)(C)N2C [Compound 238, 4,7,7,8-Tetramethyl-2-(((1-((6-(trifluoromethyl)pyridin-3-yl)methyl)-1H-pyrazol-4-yl)methyl)amino)-7,8-dihydropteridin-6(5H)-one]	< 300	
Cc1nc(NC2CN(Cc3cc(F)c(F)c(F)c3)C2)nc2c1NC(=O)[C@H](C(C)C)N2C [Compound 591, (S)-7-isopropyl-4,8-dimethyl-2-((1-(3,4,5-trifluorobenzyl)azetidin-3-yl)amino)-7,8-dihydropteridin-6(5H)-one]	< 300	
Cc1nc(N[C@H]2C[C@H](Oc3cc(F)c(F)c(F)c3)C2)nc2c1NC(=O)[C@@H](CO)N2C [Compound I-1650]		IC50 [1]: 1000 to 5000 nM
COc1cc(F)ccc1O[C@H]1C[C@H](Nc2nc(C)c3c(n2)N(C)[C@@H](C)C(=O)N3)C1 [Compound 344, (7S)-2-((trans-3-(4-fluoro-2-methoxyphenoxy)cyclobutyl)amino)-4,7,8-trimethyl-7,8-dihydropteridin-6(5H)-one]	300 to 1000	
Cc1nc(NC2CN(C(=O)c3cocn3)C2)nc2c1NC(=O)[C@H](C(C)C)N2C [Compound 605, (S)-7-isopropyl-4,8-dimethyl-2-((1-(oxazole-4-carbonyl)azetidin-3-yl)amino)-7,8-dihydropteridin-6(5H)-one]	≥ 5000	
COc1c(F)cc(OC[C@H]2C[C@@H](Nc3nc(C)c4c(n3)N(C)[C@@H](C)C(=O)N4)C2)cc1F [Compound 284, (7S)-2-((cis-3-((3,5-difluoro-4-methoxyphenoxy)methyl)cyclobutyl)amino)-4,7,8-trimethyl-7,8-dihydropteridin-6(5H)-one]	< 300	
Cc1nc(N[C@H]2C[C@@H](N(C)c3cnc(C(F)(F)F)cn3)C2)nc2c1NC(=O)[C@H](C)N2C [Compound 653, (S)-4,7,8-trimethyl-2-((cis-3-(methyl(5-(trifluoromethyl)pyrazin-2-yl)amino)cyclobutyl)amino)-7,8-dihydropteridin-6(5H)-one]	≥ 5000	
Cc1nc(N[C@H]2CO[C@@H](COc3cc(F)c(F)c(F)c3)C2)nc2c1NC(=O)[C@H](C)N2C [Compound 309, (7S)-4,7,8-trimethyl-2-(((3R,5R)-5-((3,4,5-trifluorophenoxy)methyl)-tetrahydrofuran-3-yl)amino)-7,8-dihydropteridin-6(5H)-one]	300 to 1000	
Cc1nc(N[C@H]2C[C@@H](Oc3cnc(C(F)(F)F)nc3)C2)nc2c1NC(=O)[C@H](C(C)C)N2C [Compound 644, (S)-7-isopropyl-4,8-dimethyl-2-((cis-3-((2-(trifluoromethyl)pyrimidin-5-yl)oxy)cyclobutyl)amino)-7,8-dihydropteridin-6(5H)-one]	< 300	
CC[C@H]1C(=O)Nc2c(C)nc(NCc3cnn(Cc4ccc(F)nc4)c3)nc2N1C [Compound 389, (7S)-7-Ethyl-2-(((1-((6-fluoropyridin-3-yl)methyl)-1H-pyrazol-4-yl)methyl)amino)-4,8-dimethyl-7,8-dihydropteridin-6(5H)-one]	< 300	
Cc1nc(NCc2cnn(Cc3cc(F)c(F)c(F)c3)c2)nc2c1NC(=O)[C@H](C(C)(C)O)N2C [Compound 729, (S)-7-(2-hydroxypropan-2-yl)-4,8-dimethyl-2-(((1-(3,4,5-trifluorobenzyl)-1H-pyrazol-4-yl)methyl)amino)-7,8-dihydropteridin-6(5H)-one]	< 300	
Cc1nc(N[C@H]2C[C@@H](Cn3ccc(C(F)(F)F)n3)C2)nc2c1NC(=O)[C@H](C(C)C)N2C [Compound 690, (S)-7-isopropyl-4,8-dimethyl-2-((cis-3-((3-(trifluoromethyl)-1H-pyrazol-1-yl)methyl)cyclobutyl)amino)-7,8-dihydropteridin-6(5H)-one]	< 300	
Cc1nc(NCc2cnn(Cc3ccc(C(C)(C)C#N)nc3)c2)nc2c1NC(=O)[C@H](C(C)C)N2C [Compound 470, (S)-2-(5-((4-(((7-isopropyl-4,8-dimethyl-6-oxo-5,6,7,8-tetrahydropteridin-2-yl)amino)methyl)-1H-pyrazol-1-yl)methyl)pyridin-2-yl)-2-methylpropanenitrile]	< 300	
Cc1nc(N[C@H]2C[C@@H](Nc3ccc(OC(F)(F)F)cn3)C2)nc2c1NC(=O)[C@H](C(C)C)N2C [Compound 576, (S)-7-isopropyl-4,8-dimethyl-2-((cis-3-((5-(trifluoromethoxy)pyridin-2-yl)amino)cyclobutyl)amino)-7,8-dihydropteridin-6(5H)-one]	< 300	
Cc1nc(NCc2cnn(Cc3ccc(OCC(F)(F)F)nc3)c2)nc2c1NC(=O)[C@H](C1CC1)N2C [Compound 435, (7S)-7-cyclopropyl-4,8-dimethyl-2-(((1-((6-(2,2,2-trifluoroethoxy)pyridin-3-yl)methyl)-1H-pyrazol-4-yl)methyl)amino)-7,8-dihydropteridin-6(5H)-one]	< 300	

— patent publication US20230312587A1, “PTERIDINONE COMPOUNDS AND USES THEREOF” (Vertex Pharmaceutical Incorporated, priority 2018, published 2023)
